Data on ten compounds can be found in ChEMBL document CHEMBL1141827, “A glycosyl analogue of diacylglycerol and other antiinflammatory constituents from Inula viscosa” (1999).

Usually inhibition in vivo stands for the drop in the measured response relative to a control, in per cent.

Common to all, as to type: functional
In assay [1] the test system is Mus musculus. The experiment in a line: Antiinflammatory activity against Swiss mouse chronic dermatitis model assessed as inhibition of TPA-induced edema at 0.5 mg/ear applied twice daily for 4 days measured after 6 hrs.
In assay [2] the test system is Mus musculus. The experiment in a line: Antiinflammatory activity against Swiss mouse assessed as inhibition of arachidonic acid-induced edema at 0.5 mg/ear applied 30 mins before arachidonic acid challenge measured after 1 hr.
Assay [3] is filed under the species Mus musculus. Description: Antiinflammatory activity against Swiss mouse chronic dermatitis model assessed as inhibition of TPA-induced tissue myeloperoxidase activity at 0.5 mg/ear applied twice daily for 4 days measured after 6 hrs.
Assay [4] concerns Mus musculus. The experiment in a line: Antiinflammatory activity against Swiss mouse assessed as inhibition of TPA-induced edema at 0.5 mg/ear applied simultaneously with TPA measured after 4 hrs.
Assay [5] has as its system Mus musculus. The experiment in a line: Antiinflammatory activity against Swiss mouse assessed as inhibition of carrageenan-induced paw volume at 100 mg/kg, po administered 1 hr prior to carrageenan challenge measured after 1 hr. (In the carrageenan paw model, swelling and tenderness develop within hours.)
For assay [6], the system named is Mus musculus. The experiment in a line: Antiinflammatory activity against Swiss mouse assessed as inhibition of carrageenan-induced paw volume at 100 mg/kg, po administered 1 hr prior to carrageenan challenge measured after 3 hrs.
In assay [7] the test system is Mus musculus. Description: Antiinflammatory activity against Swiss mouse assessed as inhibition of carrageenan-induced paw volume at 100 mg/kg, po administered 1 hr prior to carrageenan challenge measured after 5 hrs.

In the case of `CC/C=C\C/C=C\C/C=C\CCCCCCCC(=O)OC(COC(=O)CCCCCCCCCCCCCCC)CO[C@H]1O[C@@H](CO[C@H]2O[C@H](CO)[C@H](O)[C@H](O)[C@H]2O)[C@@H](O)[C@@H](O)[C@@H]1O` (some centres undefined) [INUGALACTOLIPID A], the “inhibition (INH)” value with Mus musculus [1] amounted to 97%; with Mus musculus [2], 5%; in the assay listed under Mus musculus [3], 84%; with Mus musculus [4] it was 48%. Besides, the values for the inhibition in vivo at 100 mg/kg in the assay on Mus musculus [5], in the assay with Mus musculus [6] and in the assay with Mus musculus [7] were -16%, 10% and 5%, respectively.
`COc1cc(O)c2c(=O)c(O)c(-c3ccc(O)cc3)oc2c1` [RHAMNOCITRIN]: the “inhibition (INH)” value in the assay with Mus musculus [2] turned out to be 6%; with Mus musculus [4], 78%.
As for `C=C(C(=O)O)[C@@H]1CC[C@@]2(C)CCC[C@@](C)(O)[C@@H]2C1` [ILICIC ACID], the “inhibition (INH)” value in the assay on Mus musculus [1] came out at 78%; in the assay with Mus musculus [2], 18%; in the assay listed under Mus musculus [3], 82%; in the assay on Mus musculus [4], 72%. The results for the inhibition in vivo at 100 mg/kg in the assay with Mus musculus [5], in the assay with Mus musculus [6] and in the assay on Mus musculus [7] were 5%, 32% and 30%, respectively.
Take `O=C1CCN(c2ccccc2)N1` [PHENIDONE]: the “inhibition (INH)” value with Mus musculus [2] is recorded as 51%.
As to `C[C@@H]1C[C@H]2[C@@H]3CCC4=CC(=O)C=C[C@]4(C)[C@@]3(F)[C@@H](O)C[C@]2(C)[C@@]1(O)C(=O)CO` [DEXAMETHASONE], the “inhibition (INH)” value in the assay on Mus musculus [1] and in the assay listed under Mus musculus [3] was 92% each time.
In the case of `COc1cc(O)c2c(c1)O[C@H](c1ccc(O)cc1)[C@@H](O)C2=O`, the “inhibition (INH)” value in the assay on Mus musculus [2] is given as 3%; in the assay with Mus musculus [4], 78%.
`COc1ccc2c(c1)c(CC(=O)O)c(C)n2C(=O)c1ccc(Cl)cc1` [INDOMETHACIN]: in the assay with Mus musculus [4], the “inhibition (INH)” value was 91%.
Regarding `C=C1C(=O)O[C@H]2CC(=C)[C@H]3CC[C@@](C)(O)[C@@H]3C[C@H]12` [INUVISCOLIDE], the “inhibition (INH)” value is on record as -16% in the assay on Mus musculus [2] and 90% in the assay on Mus musculus [4].
As for `CCCCC1C(=O)N(c2ccccc2)N(c2ccccc2)C1=O` [PHENYLBUTAZONE], the inhibition in vivo at 100 mg/kg with Mus musculus [5] is 54%; in the assay with Mus musculus [6], 58%; in the assay on Mus musculus [7] it was 43%.
Turning to `COc1cc(O)c2c(c1)O[C@H](c1ccc(O)c(O)c1)[C@@H](OC(C)=O)C2=O`, the “inhibition (INH)” value with Mus musculus [2] is recorded as -1%; with Mus musculus [4], 83%.
